Test results as given in US4840949A, “Oxadiazole-alkyl-purine derivatives useful as antitussive agents” (Chinoin Gyogyszer Es Vegyeszeti Termekek Gyara Rt., priority 1986, dated 1989).
Counter-ions that a name gives are not always drawn.

How the values were obtained:
[1] = in vivo; conditions: rat, ip
[2] = Coughing caused by mechanical stimulation of the trachea bifurcatio on rabbits narcotised by nembutal, i.v. administration; assay type: in vivo, rabbit
[3] = Alleviation of coughing caused by 15% citric acid spray on guinea pig, oral administration; assay type: in vivo; conditions: for ED50: Cavia porcellus, po; for absolute strength of the antitussive effect, in words: Table I
Method: The aforesaid facts are supported by Table I wherein the ID50 mg/kg values of 3,7-dihydro-3-methyl-7-[(5-methyl-1,2,4-oxadiazole-3-yl)-methyl]-1H-purine-2,6-dione (the most simple representative of the compounds of the Formula I); two known 1,2,4-oxadiazole-type antitussive agents, codeine and dextromethorphane (morphine type reference compounds) in the alleviation of coughing caused by a 15% citric acid spray are disclosed. […] As test animal guinea pigs are used. (Method: Arzneimittel Forschung 1966, 617-621). Test compound No. 5 is 2-(3-methyl-xanthine-7-yl)-acetamidoxime (a starting material of the Formula II).
Alleviation of coughing caused by 15% citric acid spray on
guinea pig, the test compounds are administered orally
Antitussive effect of p.o. administered 3,7-dihydro-3-methyl-7-
[(5-methyl-1,2,4-oxadiazole-3-yl)-methyl]-lH--purine-2,6-dione
on coughing induced by 15% citric acid spray on guinea pig

[4] = 1 hour pre-treatment, 15% citric acid spray, read-out: Antitussive effect, measured 1 hour after oral administration ID50

In the case of `Cc1nc(Cn2cnc3c2c(=O)[nH]c(=O)n3C)no1` [Compound 1, 3,7-dihydro-3-methyl-7-[(5-methyl-1,2,4-oxadiazole-3-yl)-methyl]-1H-purine-2,6-dione], the LD50 [1] is reported as 700 mg/kg, the ED50 ([2]; Oryctolagus cuniculus, iv, 2 min, rabbit, i.v., 2 minutes after administration, calculated according to Lichfield-Wilcoxon) is reported as 2.24 mg/kg and the “decrease of coughing caused by mechanical stimulation” value ([2]; rabbit, 0.5-8.0 mg/kg i.v.) is reported as “decreases in dose-dependant manner”. The “therapeutical index relative to reference compounds Nos. 4 and 6” value ([2]; taking into consideration the I.O. toxicity data) was “ten times more favorable”, the ED50 [3, 4] was 8.5 mg/kg and the ED50 ([3]; pre-treatment time 2.0 h, read-out: ID50, pre-treatment time 2.0 h) was 14.4 mg/kg. For the same molecule, the ED50 ([3]; pre-treatment time 4.0 h, read-out: ID50, pre-treatment time 4.0 h) was 13.8 mg/kg, the ED50 ([3]; pre-treatment time 8.0 h, read-out: ID50, pre-treatment time 8.0 h) was 32.6 mg/kg and the ED50 ([3]; read-out: ID50, pre-treatment time 0.5 h, p.o., pre-treatment time 0.5 h) was 7.5 mg/kg. For the same molecule, the “absolute strength of the antitussive effect, in words” value ([3]; p.o.) was “significantly higher than that of reference compounds Nos. 2-4 and 6” and the “duration of oral antitussive effect” value ([3]; p.o., Table I/A) was “very long-lasting”.

For `Cc1nc(Cn2cnc3c2c(=O)n(C)c(=O)n3C)no1` [Compound 2, 3,7-dihydro-1,3-dimethyl-7-[(5-methyl-1,2,4-oxadiazole-3-yl)-methyl]-1H--purine-2,6-dione, reference compound], the ED50 [3, 4] was 111 mg/kg.

In the case of `COc1ccc2c3c1O[C@H]1[C@@H](O)C=C[C@H]4[C@@H](C2)N(C)CC[C@@]341` [Compound 4, Codeine.HCl, reference compound], the LD50 [1] is reported as 72.4 mg/kg and the “antitussive effect relative to compound No. 1” value ([2]; rabbit, i.v.) is reported as “the same or a somewhat lower antitussive effect”.

In the case of `Cn1c(=O)[nH]c(=O)c2c1ncn2CC(N)=NO` [Compound 5, 2-(3-methyl-xanthine-7-yl)-acetamidoxime, reference compound], the “Antitussive effect at 50 mg/kg” value ([3]; 50 mg/kg p.o., 1 hour after administration) is reported as “inactive” and the “absolute strength of the antitussive effect, in words” value ([3]; p.o.) is reported as “practically negligible”.

With `COc1ccc2c(c1)[C@]13CCCC[C@@H]1[C@H](C2)N(C)CC3` [Compound 6, Dextromethorphan, reference compound] the “antitussive effect relative to compound No. 1” value ([2]; rabbit, i.v.) was “the same or a somewhat lower antitussive effect”.
